Measured values taken from patent US12653800B2, “Small molecule inhibitors of TLR2 signaling” (University of Maryland, Baltimore, priority 2015, dated 2026).

What was measured:
TLR2/1 = TLR2/1 (Mus musculus, UniProt Q9QUN7); assay: P3C-induced inflammation in vivo in C57BL/6J mice; design: tissue The Jackson Laboratory; host or cells: whole animal; liver RNA and serum analysed; settings: C29L i.p. 1.314 mM/g twice, P3C 100 μg i.p.
Method: FIG. 4. C29L inhibits TLR2/1-induced inflammation in vivo. C57BL/6J mice were pretreated i.p. with vehicle (water) or C29L (1.314 mM/g) for 1 hr. Mice received a second pretreatment i.p. with vehicle (water) or C29L (1.314 mM/g) and subsequently were challenged i.p. with PBS or P3C (100 μg) and sacrificed 1 hr or 3 hrs later. Liver RNA (A) was analyzed by qRT-PCR and serum concentrations (B) were analyzed by Multiplex (*, p≤0.05; ***, p≤0.001; ****, p≤0.0001). Panels A and B, n=6 (the combined data from two separate experiments) for each treatment group.
All animal studies were carried out with institutional approval. Female C57BL/6J mice (6-8 weeks old) were purchased from The Jackson Laboratory (Bar Harbor, ME) and (n=3 mice/group) received PBS, H2O, or C29L (in H2O) i.p. (1.314 mM/g). After 1 h, mice received a second injection of PBS, H2O, or C29L i.p. (1.314 mM/g) and were subsequently challenged i.p. with PBS or P3C (100 μg) for 1 or 3 h. Mice were bled and sera was prepared. Livers were also extracted for qRT-PCR analysis.

TLR2/6 = TLR2/6 (Homo sapiens, UniProt O60603); assay: IL-1β mRNA in THP-1 cells stimulated with TLR2/6 agonists (P2C, zymosan); assay type: cell-based; design: expressed in transfected cells; settings: C29 50, 100 or 200 μM
[1] = Thin layer chromatography of C29 in NaOH or organic solvent (imine cleavage); assay type: physicochemical
Method: FIG. 11. C29 L reproduces the TLR2 inhibitory activity observed with C29. (A) C29 dissolved in NaOH generates ortho-vanillin (“C29L”) and 3-amino-2-methylbenzoic acid (“C29R”). (B) TLC plate coated with silica was spotted with C29 dissolved in 65 μM NaOH, C29 dissolved in ethyl acetate (organic solvent), and a mixture of both. The plate was placed in solvent and visualized using a KMnO4 stain. (C, D) Total RNA was extracted from murine peritoneal macrophages that had been pretreated for 1 hr with vehicle (65 μM NaOH), C29 (25 μM or 50 μM), C29L (25 μM or 50 μM), or C29R (25 μM or 50 μM) and then stimulated with P3C (50 ng/mL), P2C (100 ng/mL), or LPS (100 ng/mL) for 1 hr in the presence of vehicle, C29, C29L, or C29R. TNF-α mRNA was measured as described in FIG. 1, panel D. Quantitative real-time results are representative of 2 independent experiments each carried out in duplicate (*, p≤0.05; **, p≤0.01; ***, p≤0.001; ****, p≤0.0001).
To preclude cytotoxicity from DMSO, C29 was dissolved in 65 μM NaOH in H2O. […] The two cleavage products, C29L and C29R, were tested to determine if either would reproduce the TLR2 inhibitory activity of C29.

[2] = biological target: T1, interaction of TLR2 with MyD88 (Homo sapiens, UniProt O60603); assay: Co-immunoprecipitation of TLR2 with MyD88 in THP-1 cells; assay type: cell-based; settings: C29 150 μM, P3C 50 ng/mL, 15 and 30 minutes, statistical significance at 30 minutes
T1 construct: host or cells: THP-1 cells, PMA 20 ng/mL for 24 hrs, P3C-stimulated
Method: FIG. 2. C29 inhibits ligand-induced interaction of TLR2 with MyD88 and blocks MAPK and NF-κβ activation. (A) THP-1 cells were cultured in the presence of PMA (20 ng/mL) for 24 hrs and washed twice in media. THP-1 human monocytes were pretreated with media, vehicle (195 μM NaOH), or C29 (150 μM) for 1 hr and treated with P3C (50 ng/mL) in the presence of media, vehicle, or C29 for 15 or 30 min. Co-immunoprecipitation (IP) was carried out using anti-MyD88 antibody and Western analysis (IB) using whole cell lysates. (B) Densitometry analysis (mean±SEM) of 3 independent experiments as shown in (A). (C) Murine peritoneal macrophages were pretreated for 1 hr with media, vehicle (65 μM NaOH), or C29 (50 μM) and treated with P3C (50 ng/mL) for 5-30 min in the presence of media, vehicle, or C29. IB was performed using whole cell lysates and antibodies directed against the signaling intermediates indicated. β-actin was probed as a loading protein. […]
Cells were treated and washed once with 1×PBS and lysed using buffer containing 20 mM HEPES (pH 7.4), 150 mM NaCl, 1 mM EDTA, 1 mM EGTA (pH 8.0), 50 mM NaF, 0.5% Triton X-100, 1 mM Na3VO4, 1 mM DTT, 1 mM PMSF, and protease inhibitor (Roche Applied Science, Indianapolis, IN). Cells were harvested and protein was quantified using BCA Protein assay reagents (Thermo Scientific/Pierce, Rockford, IL). […]

TLR2 = TLR2 (Mus musculus, UniProt Q9QUN7); assay: Cytokine mRNA in murine peritoneal macrophages (PEC) stimulated with bacterial TLR2 agonists; assay type: cell-based; settings: C29 50 μM
[3] = murine macrophages, MOI=0.7, 4 hrs
[4] = primary murine macrophages (PEC), MOI=50, 4 hrs

Chain of TLR2 (Q9QUN7 25-784): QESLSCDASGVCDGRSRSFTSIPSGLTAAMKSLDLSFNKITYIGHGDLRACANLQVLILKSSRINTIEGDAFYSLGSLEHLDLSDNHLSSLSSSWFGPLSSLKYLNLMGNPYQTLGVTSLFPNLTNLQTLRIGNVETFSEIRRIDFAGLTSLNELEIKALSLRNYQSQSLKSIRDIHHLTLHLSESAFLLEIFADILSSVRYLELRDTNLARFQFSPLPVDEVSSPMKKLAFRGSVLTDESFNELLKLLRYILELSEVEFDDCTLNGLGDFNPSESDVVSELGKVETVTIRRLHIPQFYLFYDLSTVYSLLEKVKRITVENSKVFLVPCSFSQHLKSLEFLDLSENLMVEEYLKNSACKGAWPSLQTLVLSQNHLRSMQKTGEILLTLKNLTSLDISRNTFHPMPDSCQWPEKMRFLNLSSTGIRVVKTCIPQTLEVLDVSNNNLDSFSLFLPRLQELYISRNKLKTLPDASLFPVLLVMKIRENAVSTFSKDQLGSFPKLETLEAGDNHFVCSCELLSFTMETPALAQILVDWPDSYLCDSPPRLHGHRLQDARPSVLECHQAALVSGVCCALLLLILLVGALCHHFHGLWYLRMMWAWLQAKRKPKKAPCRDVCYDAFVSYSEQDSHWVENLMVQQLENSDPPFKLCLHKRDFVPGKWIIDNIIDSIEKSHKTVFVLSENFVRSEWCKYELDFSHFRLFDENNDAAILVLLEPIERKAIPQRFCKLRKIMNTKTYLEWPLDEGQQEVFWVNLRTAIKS
Chain of TLR2/1 (Q9QUN7 25-784): as above
Chain of TLR2/6 (O60603 21-784): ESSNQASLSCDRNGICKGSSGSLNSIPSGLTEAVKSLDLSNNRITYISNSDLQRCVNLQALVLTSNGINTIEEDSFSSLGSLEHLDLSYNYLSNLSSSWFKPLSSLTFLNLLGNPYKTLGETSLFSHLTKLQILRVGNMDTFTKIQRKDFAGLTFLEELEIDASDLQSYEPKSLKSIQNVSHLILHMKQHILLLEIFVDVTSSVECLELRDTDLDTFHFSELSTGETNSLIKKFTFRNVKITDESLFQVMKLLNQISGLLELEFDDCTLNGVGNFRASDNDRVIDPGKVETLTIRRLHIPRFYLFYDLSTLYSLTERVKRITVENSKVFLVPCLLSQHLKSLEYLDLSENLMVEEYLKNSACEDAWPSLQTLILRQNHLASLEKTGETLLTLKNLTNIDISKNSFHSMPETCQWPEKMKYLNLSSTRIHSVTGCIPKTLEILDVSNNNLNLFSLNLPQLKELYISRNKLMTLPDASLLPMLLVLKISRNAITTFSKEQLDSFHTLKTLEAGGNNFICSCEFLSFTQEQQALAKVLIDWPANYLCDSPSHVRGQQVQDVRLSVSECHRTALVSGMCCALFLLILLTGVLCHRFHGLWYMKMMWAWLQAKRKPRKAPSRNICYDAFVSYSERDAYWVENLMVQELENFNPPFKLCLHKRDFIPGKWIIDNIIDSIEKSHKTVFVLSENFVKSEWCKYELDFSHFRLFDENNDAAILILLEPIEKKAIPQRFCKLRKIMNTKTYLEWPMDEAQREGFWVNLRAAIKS
T1 sequence (O60603 21-784): as above

P3C-induced IL-12 p40 liver cytokine mRNA (TLR2/1; 1 or 3 hrs)	P3C-induced IL-12 p40 serum protein (TLR2/1; 1 or 3 hrs)	P3C-induced TNF-α liver cytokine mRNA (TLR2/1; 1 or 3 hrs)	P3C-induced TNF-α serum protein (TLR2/1; 1 or 3 hrs)	P3C-induced IL-12 p40 at the later time point (TLR2/1; 3 hrs)	Compound	P2C-induced IL-1β gene expression (TLR2/6; P2C 50 ng/mL, 1 h and 4 h)	zymosan-induced IL-1β mRNA (TLR2/6; zymosan 10 μg/mL 4 hrs)	stability of imine linkage (TLC) ([1]; dissolved in 65 μM NaOH in H2O)	stability of imine linkage (TLC) ([1]; dissolved in an organic solvent (ethyl acetate))	interaction between endogenous TLR2 and MyD88 (co-IP) [2]	live S. pneumoniae-induced IL-1β mRNA (TLR2; [3])	live S. pneumoniae-induced IL-12 p40 mRNA (TLR2; [3])	HKSA-mediated IL-1β mRNA (TLR2; [4])	heat-killed S. pneumoniae (HKSP)-mediated IL-1β mRNA (TLR2; [4])
significantly blocked	significantly blocked	significantly blocked	significantly blocked	significant inhibitory effect	COc1cccc(C=O)c1O [Compound C29L, ortho-vanillin]	–	–	–	–	–	–	–	–	–
–	–	–	–	–	COc1cccc(/C=N/c2cccc(C(=O)O)c2C)c1O [Compound C29]	inhibited P3C- and P2C-induced IL-1β gene expression significantly	blocked zymosan- and LTA SA-induced IL-1β mRNA dose-dependently	cleaved into these two species	not when dissolved in an organic solvent	diminished the interaction	inhibited	inhibited	significantly blocked	significantly blocked
